Values after ≈ are worked out from the molar mass of the structure shown.
Tests used:
Canidae = conditions: chronic; duration: 1 years; oral; Dog Other; clinical signs
Apis mellifera = conditions: acute; duration: 48 hours; oral; unspecified; mortality
Pimephales promelas = conditions: chronic/long-term; duration: 28 days; body weight
Anas platyrhynchos = conditions: reproductive
Colinus virginianus = conditions: for LD50: acute, oral, mortality
Bibionidae = conditions: chronic/long-term; duration: 28 days; no effects
Lepomis macrochirus = conditions: acute; duration: 96 hours; mortality
Daphnia magna = conditions: chronic/long-term; duration: 21 days; reproduction
Mus musculus = conditions: acute; oral; F; mortality
Typhlodromus pyri = experiment: LR50; higher = less toxic; conditions: chronic/long-term; duration: 7 days; mortality
Aphidius rhopalosiphi = experiment: LR50; higher = less toxic; conditions: acute; duration: 48 hours; mortality

SMILES: CC(C)C1CCC(Cc2ccc(Cl)cc2)C1(O)Cn1cncn1 (stereo not drawn) [Ipconazole]
- NOAEL (Canidae): 1.5 mg/kg-day
- LC50 (Tagia sp.; acute, duration: 14 days, mortality): 597 mg/kg
- NOEC (Tagia sp.; chronic/long-term, duration: 8 weeks, reproduction): 0.78 mg/kg
- LD50 (Rattus norvegicus; acute, oral, F, mortality): > 2000 mg/kg
- NOAEL (Rattus norvegicus; developmental, development): 3 mg/kg-day
- NOAEL (Rattus norvegicus; reproduction developmental, body weight): 8 mg/kg-day
- LD50 (Apis mellifera): > 100 µg/piece
- NOEC (Pimephales promelas): 0.44 µg/L
- NOEL (Anas platyrhynchos): 27.1 mg/kg-day
- LD50 (Colinus virginianus; diet): > 300 mg/kg-day
- LD50 (Colinus virginianus): 962 mg/kg
- NOEL (Colinus virginianus; reproduction developmental): 4.3 mg/kg-day
- NOEC (Bibionidae): 3.52 mg/L
- LC50 (Lepomis macrochirus): 1.3 µg/mL (≈ 3.89 µM)
- NOEC (Daphnia magna): 10.9 µg/L
- LD50 (Mus musculus): 468 mg/kg
- LR50 (Typhlodromus pyri): 17.4 g/ha
- LR50 (Aphidius rhopalosiphi): 35.1 g/ha

From EPA's ToxValDB 9.5 (doi:10.2903/j.efsa.2013.3181)
